According to patent US20240116985A1, “STAPLED PEPTIDES AND METHODS THEREOF” (priority 2020, published 2024):

target: T1, full-length beta-Catenin (Uniprot ID P35222) (Homo sapiens, UniProt P35222); assay: Fluorescence polarization IC50 (beta-catenin / 5FAM-TCF4 10-53 competition); assay type: binding; conditions: fluorescence polarization; read-out: beta-Catenin FP IC50
T1 construct: 10 nM full-length beta-Catenin (Uniprot ID P35222)
T1 sequence (P35222 1-781): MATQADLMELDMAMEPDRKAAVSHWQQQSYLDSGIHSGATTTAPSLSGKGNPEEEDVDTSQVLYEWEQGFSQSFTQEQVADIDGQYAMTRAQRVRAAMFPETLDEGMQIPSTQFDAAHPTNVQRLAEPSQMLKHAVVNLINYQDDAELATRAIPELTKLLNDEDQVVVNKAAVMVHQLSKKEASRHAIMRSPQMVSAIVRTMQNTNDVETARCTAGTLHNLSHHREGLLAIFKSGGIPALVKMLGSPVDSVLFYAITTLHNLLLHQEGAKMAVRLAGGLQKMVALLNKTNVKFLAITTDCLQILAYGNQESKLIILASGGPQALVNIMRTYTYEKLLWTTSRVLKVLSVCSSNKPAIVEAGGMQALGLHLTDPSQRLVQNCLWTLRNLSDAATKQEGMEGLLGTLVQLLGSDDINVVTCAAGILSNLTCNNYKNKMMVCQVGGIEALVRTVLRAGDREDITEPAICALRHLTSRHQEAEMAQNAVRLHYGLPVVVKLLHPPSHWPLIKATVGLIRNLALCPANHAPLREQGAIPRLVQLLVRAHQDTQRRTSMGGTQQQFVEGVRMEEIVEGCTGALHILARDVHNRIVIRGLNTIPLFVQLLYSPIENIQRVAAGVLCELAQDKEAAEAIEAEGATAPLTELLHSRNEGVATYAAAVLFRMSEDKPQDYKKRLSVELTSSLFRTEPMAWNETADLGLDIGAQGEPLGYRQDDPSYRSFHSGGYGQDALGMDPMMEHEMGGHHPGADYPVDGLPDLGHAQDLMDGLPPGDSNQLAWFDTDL

First: CC(=O)N1CCC[C@]12CC=CCCCC1(CCCC=CCCCOC(=O)N3CC[C@@](C(=O)N[C@@H](Cc4ccsc4)C(=O)N[C@@H](Cc4csc5ccccc45)C(=O)N[C@@H](CCC(N)=O)C(N)=O)(C3)NC(=O)[C@H](CC(N)=O)NC(=O)[C@H](Cc3cccc(C(F)(F)F)c3)NC(=O)[C@H](C)NC(=O)[C@H](C)NC(=O)[C@H]([C@@H](C)O)NC(=O)[C@H](CC(N)=O)NC1=O)NC(=O)[C@H](CC(C)(C)C)NC(=O)[C@H](CC(=O)O)NC2=O (stereo partly drawn) [I-2010, Ac-PL3-Asp-Npg-B5-Asn-Thr-Ala-Ala-3F3MeF-Asn-PyrS2-3Thi-BztA-Gln-NH2]
Second: CC(=O)N1CCC[C@]12CC=CCCCC1(CCCC=CCCCOC(=O)N3CC[C@@](C(=O)N[C@@H](Cc4ccsc4)C(=O)N[C@@H](Cc4csc5ccccc45)C(=O)N[C@@H](CCC(N)=O)C(N)=O)(C3)NC(=O)[C@H](CC(N)=O)NC(=O)[C@H](Cc3cccc(Cl)c3)NC(=O)[C@H](C)NC(=O)[C@H](C)NC(=O)[C@H]([C@@H](C)O)NC(=O)[C@H](CC(N)=O)NC1=O)NC(=O)[C@H](CC(C)(C)C)NC(=O)[C@H](CC(=O)O)NC2=O (stereo partly drawn) [I-2013, Ac-PL3-Asp-Npg-B5-Asn-Thr-Ala-Ala-3C1F-Asn-PyrS2-3Thi-BztA-Gln-NH2]
The IC50 of the first is 3-fold higher: 1.97 µM for the first, 0.661 µM for the second. The second is the more potent here.

Compared with CC(=O)N1CCC[C@]12CC=CCCCC1(CCCC=CCCCOC(=O)N3CC[C@@](C(=O)N[C@@H](Cc4ccsc4)C(=O)N[C@@H](Cc4csc5ccccc45)C(=O)N[C@@H](CCC(N)=O)C(N)=O)(C3)NC(=O)[C@H](CC(N)=O)NC(=O)[C@H](Cc3cccc(Cl)c3)NC(=O)[C@H](C)NC(=O)[C@H](C)NC(=O)[C@H]([C@@H](C)O)NC(=O)[C@H](CC(N)=O)NC1=O)NC(=O)[C@H](CC(C)(C)C)NC(=O)[C@H](CC(=O)O)NC2=O (stereo partly drawn) [I-2014, Ac-PL3-Asp-Npg-B5-Asn-Thr-Ala-Ala-3C1F-Asn-PyrS2-3Thi-BztA-Gln-NH2], CC(=O)N1CCC[C@]12CC=CCCCC1(CCCC=CCCCOC(=O)N3CC[C@@](C(=O)N[C@@H](Cc4ccsc4)C(=O)N[C@@H](Cc4csc5ccccc45)C(=O)N[C@@H](CCC(N)=O)C(N)=O)(C3)NC(=O)[C@H](CC(N)=O)NC(=O)[C@H](Cc3ccc(O)cc3)NC(=O)[C@H](C)NC(=O)[C@H](C)NC(=O)[C@H]([C@@H](C)O)NC(=O)[C@H](CC(N)=O)NC1=O)NC(=O)[C@H](CC(C)(C)C)NC(=O)[C@H](CC(=O)O)NC2=O (stereo partly drawn) [I-2015, Ac-PL3-Asp-Npg-B5-Asn-Thr-Ala-Ala-Tyr-Asn-PyrS2-3Thi-BztA-Gln-NH2] is 2.3-fold lower in IC50: 1.18 µM for the first, 0.522 µM for the second. The second is the more potent here.

First: CC(=O)N1CCC[C@]12CC=CCCCC1(CCCC=CCCCOC(=O)N3CC[C@@](C(=O)N[C@@H](Cc4ccsc4)C(=O)N[C@@H](Cc4csc5ccccc45)C(=O)N[C@@H](CCC(N)=O)C(N)=O)(C3)NC(=O)[C@H](CC(N)=O)NC(=O)[C@H](Cc3ccc(O)cc3)NC(=O)[C@H](C)NC(=O)[C@H](C)NC(=O)[C@H]([C@@H](C)O)NC(=O)[C@H](CC(N)=O)NC1=O)NC(=O)[C@H](CC(C)(C)C)NC(=O)[C@H](CC(=O)O)NC2=O (stereo partly drawn) [I-2016, Ac-PL3-Asp-Npg-B5-Asn-Thr-Ala-Ala-Tyr-Asn-PyrS2-3Thi-BztA-Gln-NH2]
Second: CC(=O)N1CCC[C@]12CC=CCCCC1(CCCC=CCCCOC(=O)N3CC[C@](C(=O)N[C@@H](Cc4ccsc4)C(=O)N[C@@H](Cc4csc5ccccc45)C(=O)N[C@@H](CCC(N)=O)C(N)=O)(C3)NC(=O)[C@H](CC(N)=O)NC(=O)[C@H](Cc3ccccc3)NC(=O)[C@H](C)NC(=O)[C@H](C)NC(=O)[C@H](CC(=O)O)NC(=O)[C@H](CC(=O)O)NC1=O)NC(=O)[C@H](CC(C)(C)C)NC(=O)[C@H](CC(=O)O)NC2=O (stereo partly drawn) [I-2017, Ac-PL3-Asp-Npg-B5-Asp-Asp-Ala-Ala-Phe-Asn-PyrR2-3Thi-BztA-Gln-NH2]
The IC50 of the first is 2.9-fold lower: 0.703 µM for the first, 2.05 µM for the second.

CC(=O)N1CCC[C@]12CC=CCCCC1(CCCC=CCCCOC(=O)N3CC[C@](C(=O)N[C@@H](Cc4ccsc4)C(=O)N[C@@H](Cc4csc5ccccc45)C(=O)N[C@@H](CCC(N)=O)C(N)=O)(C3)NC(=O)[C@H](CC(N)=O)NC(=O)[C@H](Cc3ccccc3)NC(=O)[C@H](C)NC(=O)[C@H](C)NC(=O)[C@H](CC(=O)O)NC(=O)[C@H](CC(=O)O)NC1=O)NC(=O)[C@H](CC(C)(C)C)NC(=O)[C@H](CC(=O)O)NC2=O (stereo partly drawn) [I-2018, Ac-PL3-Asp-Npg-B5-Asp-Asp-Ala-Ala-Phe-Asn-PyrR2-3Thi-BztA-Gln-NH2] and CC(=O)N1CCC[C@]12CC=CCCCC1(CCCC=CCCCOC(=O)N3CC[C@](C(=O)N[C@@H](Cc4ccsc4)C(=O)N[C@@H](Cc4csc5ccccc45)C(=O)N[C@@H](CCC(N)=O)C(N)=O)(C3)NC(=O)[C@H](CC(C)C)NC(=O)[C@H](Cc3ccccc3)NC(=O)[C@H](C)NC(=O)[C@H](C)NC(=O)[C@H](CC(=O)O)NC(=O)[C@H](CC(=O)O)NC1=O)NC(=O)[C@H](CC(C)(C)C)NC(=O)[C@H](CC(=O)O)NC2=O (stereo partly drawn) [I-2019, Ac-PL3-Asp-Npg-B5-Asp-Asp-Ala-Ala-Phe-Leu-PyrR2-3Thi-BztA-Gln-NH2] are within 1.5-fold of each other in IC50: 1.68 µM for the first, 1.45 µM for the second.

Going from CC(=O)N1CCC[C@]12CC=CCCCC1(CCCC=CCCCOC(=O)N3CC[C@](C(=O)N[C@@H](Cc4ccsc4)C(=O)N[C@@H](Cc4csc5ccccc45)C(=O)N[C@@H](CCC(N)=O)C(N)=O)(C3)NC(=O)[C@H](CC(C)C)NC(=O)[C@H](Cc3ccccc3)NC(=O)[C@H](C)NC(=O)[C@H](C)NC(=O)[C@H](CC(=O)O)NC(=O)[C@H](CC(=O)O)NC1=O)NC(=O)[C@H](CC(C)(C)C)NC(=O)[C@H](CC(=O)O)NC2=O (stereo partly drawn) [I-2020, Ac-PL3-Asp-Npg-B5-Asp-Asp-Ala-Ala-Phe-Leu-PyrR2-3Thi-BztA-Gln-NH2] to CC(=O)N1CCC[C@]12CCCCCCC1(CCCCCCCCOC(=O)N3CC[C@](C(=O)N[C@@H](Cc4ccsc4)C(=O)N[C@@H](Cc4csc5ccccc45)C(=O)N[C@@H](CCC(N)=O)C(N)=O)(C3)NC(=O)[C@H](CC(C)C)NC(=O)[C@H](Cc3ccccc3)NC(=O)[C@H](C)NC(=O)[C@H](C)NC(=O)[C@H](CC(=O)O)NC(=O)[C@H](CC(=O)O)NC1=O)NC(=O)[C@H](CC(C)(C)C)NC(=O)[C@H](CC(=O)O)NC2=O (stereo partly drawn) [I-2022, Ac-PL3-Asp-Npg-B5-Asp-Asp-Ala-Ala-Phe-Leu-PyrR2-3Thi-BztA-Gln-NH2], the IC50 rises from 1.2 µM to 1.89 µM (1.6-fold).

First: CC(=O)N1CCC[C@]12CCCCCCC1(CCCCCCCCOC(=O)N3CC[C@](C(=O)N[C@@H](Cc4ccsc4)C(=O)N[C@@H](Cc4csc5ccccc45)C(=O)N[C@@H](CCC(N)=O)C(N)=O)(C3)NC(=O)[C@H](CC(N)=O)NC(=O)[C@H](Cc3ccccc3)NC(=O)[C@H](C)NC(=O)[C@H](C)NC(=O)[C@H](CC(=O)O)NC(=O)[C@H](CC(=O)O)NC1=O)NC(=O)[C@H](CC(C)(C)C)NC(=O)[C@H](CC(=O)O)NC2=O (stereo partly drawn) [I-2021, Ac-PL3-Asp-Npg-B5-Asp-Asp-Ala-Ala-Phe-Asn-PyrR2-3Thi-BztA-Gln-NH2]
Second: CC(=O)N1CCC[C@]12CC=CCCCC1(CCCC=CCCCOC(=O)N3CC[C@@](C(=O)N[C@@H](Cc4ccsc4)C(=O)N[C@@H](Cc4csc5ccccc45)C(=O)N[C@@H](C)C(N)=O)(C3)NC(=O)[C@H](C(C)C)NC(=O)[C@H](Cc3ccccc3)NC(=O)[C@H](C)NC(=O)[C@H](CCC(N)=O)NC(=O)[C@H](Cc3cccc(C(=O)O)c3)NC(=O)[C@H](CC(=O)O)NC1=O)NC(=O)[C@H](CC(C)(C)C)NC(=O)[C@H](CC(=O)O)NC2=O (stereo partly drawn) [I-2054, Ac-PL3-Asp-Npg-B5-Asp-3COOHF-Gln-Ala-Phe-Val-PyrS2-3Thi-BztA-Ala-NH2]
The IC50 of the first is 1100-fold higher: 5.38 µM for the first, 0.005 µM for the second.

Going from CC(=O)N1CCC[C@]12CC=CCCCC1(CCCC=CCCCOC(=O)N3CC[C@@](C(=O)N[C@@H](Cc4ccccc4Cl)C(=O)N[C@@H](Cc4csc5ccccc45)C(=O)N[C@@H](Cc4ccccc4)C(N)=O)(C3)NC(=O)[C@H](C)NC(=O)[C@H](Cc3ccccc3)NC(=O)[C@H](C)NC(=O)[C@H](C)NC(=O)[C@H](Cc3cccc(C(=O)O)c3)NC(=O)[C@H](CC(=O)O)NC1=O)NC(=O)[C@H](CC(C)(C)C)NC(=O)[C@H](CC(=O)O)NC2=O (stereo partly drawn) [I-2025, Ac-PL3-Asp-Npg-B5-Asp-3COOHF-Ala-Ala-Phe-Ala-PyrS2-2C1F-BztA-Phe-NH2] to CC(=O)N1CCC[C@]12CC=CCCCC1(CCCC=CCCCOC(=O)N3CC[C@@](C(=O)N[C@@H](Cc4ccccc4Cl)C(=O)N[C@@H](Cc4csc5ccccc45)C(=O)N[C@H](C)C(N)=O)(C3)NC(=O)[C@H](CC(N)=O)NC(=O)[C@H](Cc3ccccc3)NC(=O)[C@H](C)NC(=O)[C@H](C)NC(=O)[C@H](Cc3cccc(C(=O)O)c3)NC(=O)[C@H](CC(=O)O)NC1=O)NC(=O)[C@H](CC(C)(C)C)NC(=O)[C@H](CC(=O)O)NC2=O (stereo partly drawn) [I-2034, Ac-PL3-Asp-Npg-B5-Asp-3COOHF-Ala-Ala-Phe-Asn-PyrS2-2C1F-BztA-dAla-NH2], the IC50 falls from 0.109 µM to 0.018 µM (6.1-fold). The second is the more potent here.

For CC(=O)N1CCC[C@]12CC=CCCCC1(CCCC=CCCCOC(=O)N3CC[C@@](C(=O)N[C@@H](Cc4ccccc4)C(=O)N[C@@H](Cc4csc5ccccc45)C(=O)N[C@@H](CCO)C(N)=O)(C3)NC(=O)[C@H](CC(N)=O)NC(=O)[C@H](Cc3ccccc3)NC(=O)[C@H](C)NC(=O)[C@H](Cc3c[nH]cn3)NC(=O)[C@H](CCC(N)=O)NC(=O)[C@H](CC(=O)O)NC1=O)NC(=O)[C@H](CC1CCCCC1)NC(=O)[C@H](CC(N)=O)NC2=O (stereo partly drawn) [I-2066, Ac-PL3-Asn-Cha-B5-Asp-Gln-His-Ala-Phe-Asn-PyrS2-Phe-BztA-Hse-NH2], the IC50 was 0.357 µM.
